This assay deals with human immortalized podocytes inducibly expressing APOL1 G2. Description: APOL1 G2 podocyte cell rescue assay (Example B4). As to conditions: Homo sapiens, differentiated human podocytes, doxycycline-induced APOL1 G2, CellTiter-Glo; geometric mean of at least 2 runs; † = single run. The format is cell-based. Summed up:
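Differentiated hTERT-immortalized podocytes (clone D10) with doxycycline-inducible C-terminally HiBiT-tagged APOL1 G2, 6,000 cells/well, treated with doxycycline plus 8-point 3-fold compound series (0.4% DMSO) for 95 h at 37 °C. Viability by CellTiter-Glo luminescence; EC50 as geometric mean of ≥2 runs, each in duplicate.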
(ATP-based viability assays read luminescence as a measure of living cells.)

`C[C@]1(O)C[C@@H](N2C(=O)CCc3cc(OCCN4CCC5(CC4)C(=O)Nc4ccc(C(F)F)cc45)cnc32)C1` [Compound 274, 5-(difluoromethyl)-1′-[2-({7-oxo-8-[(cis)-3-hydroxy-3-methylcyclobutyl]-5,6,7,8-tetrahydro-1,8-naphthyridin-3-yl}oxy)ethyl]-1,2-dihydrospiro[indole-3,4′-piperidin]-2-one]: a half-maximal effect (EC50) was put at 18.8 nM.

In turn, `CC[C@]1(O)C[C@H](N2C(=O)CCc3cc(OCCN4CCC5(CC4)C(=O)Nc4ccc(Cl)cc45)cnc32)C1` (single isomer, unassigned) [Compound 290, 5-chloro-1′-[2-({7-oxo-8-[(trans)-3-ethyl-3-hydroxycyclobutyl]-5,6,7,8-tetrahydro-1,8-naphthyridin-3-yl}oxy)ethyl]-1,2-dihydrospiro[indole-3,4′-piperidin]-2-one] displayed an EC50 of 2.76 nM.

`O=C(c1ccc(OCCN2CCC3(CC2)C(=O)Nc2ccc(Cl)cc23)cc1C(F)(F)F)N1CCS(=O)(=O)CC1` [Compound 272, 4-[4-(2-{5-chloro-2-oxo-1,2-dihydrospiro[indole-3,4′-piperidin]-1′-yl}ethoxy)-2-(trifluoromethyl)benzoyl]-1λ^6-thiomorpholine-1,1-dione] yielded an EC50 of 1 nM. `CC(O)c1ncc(OCCN2CCC3(CC2)C(=O)Nc2ccc(Cl)cc23)cn1` (stereo not shown) [Compound 284, 5-chloro-1′-(2-{[2-(1-hydroxyethyl)pyrimidin-5-yl]oxy}ethyl)-1,2-dihydrospiro[indole-3,4′-piperidin]-2-one]: the EC50 is 105 nM.

As a reminder, the EC50 is the midpoint of the concentration-response curve. Low values mean an effect from little substance, high ones a need for much substance.

(Values after patent US12344610B2, “APOL1 inhibitors and methods of use” (Maze Therapeutics, Inc., priority 2022, dated 2025).)
